Reference: US10028970B2, “Composition comprising cashew apple extract” (NATUREX, priority 2011, dated 2018)

Experiment: Thermal degradation kinetics of CAE in water at 100° C. (HPLC)
Type: physicochemical
Details: CAE 50 g/L in deionised water
Method: The thermal degradation kinetics of CAE in water was investigated at 100° C. CAE was dissolved in deionised water at the concentration of 50 g/L and the solution was well homogenized. Volumes of 4 ml of this solution were placed in glass tubes, sealed, and placed in a mineral oil bath at 100° C. At predetermined intervals: 0, 10, 20, 30, 45, 60, 90, and 120 min, sample tubes were removed from the mineral oil bath and rapidly cooled in ice. For the analysis, 1 ml of each sample was mixed with 4 ml of HPLC grade methanol, homogenized, and filtrated on 0.45 μm HPLC filter. Then, 20 μL of the solution was analyzed in HPLC. The phytochemical composition of the samples was measured by reversed phase liquid chromatography using a C-18 column (ACE, 250×4.6 mm, 5 μm) at 280 nm. The areas under peak of the major components of CAE were measured in the different samples representing different time points of at 100° C.

With `O=C(/C=C/c1ccccc1)O[C@@H]1O[C@H](CO)[C@@H](O)[C@H](O)[C@H]1O` (relative stereo) [1-O-trans-cinnamoyl-beta-D-glucoside, 1-O-trans-cinnamoyl-beta-D-glucopyranose] the “incubation time after which the amount in the extract was divided by 2” value was 30 min and the “amount remaining in the extract after 120 min of incubation” value (120 min) was “almost completely disappeared from the extract”.
